From PubChem BioAssay AID179 (DTP/NCI, 2004)
Active and inactive are the calls of the source.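 The calls were made as follows: active = compounds giving half or more protection of infected cells from virus-caused growth loss, again on retest; inactive = the rest.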 Where a SMILES comes first, the peptide text is derived from it.

System: CEM cells HIV-1 protection, formazan growth assay
Assay: NCI AIDS Antiviral Assay
Settings: for IC50: measured here: growth of uninfected CEM cells
Outline: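 Five concentrations of each compound were applied to infected and uninfected human CEM cells. Protection from HIV-1 was judged from growth measured with a soluble formazan assay.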

Row | Structure (SMILES) | EC50 [µM] | IC50 [µM] | outcome
1 | O=C1CCN(CCC(F)(F)C(F)(F)C(F)(F)C(F)(F)C(F)(F)C(F)(F)F)C(=S)N1CCC(F)(F)C(F)(F)C(F)(F)C(F)(F)C(F)(F)C(F)(F)F | > 16.6 | > 16.6 | 
2 | Nc1ncnc2c1ncn2C1C=CC(=O)CC1 (centres undefined) | > 31.6 | 5.62 | 
3 | Cc1ccc(C(=O)C(c2nc3n(c2O)C(=N)N=N3)c2nc3n(c2O)C(=N)N=N3)cc1 (centres undefined) | > 12.9 | > 12.9 | 
4 | C=C(CCCC(C)OC(C)OCC)[Si](C)(C)C (centres undefined) | > 38.9 | > 38.9 | 
5 | CCOC(=O)C(NC(=O)C(CCCCNP(=O)(OCC)OCC)NC(=O)C(C)NC(C)=O)C(C)C (centres undefined) | > 200 | > 200 | 
6 | COc1cc(C2C3=C(COC3=O)Oc3cc4c(cc32)OCO4)cc(OC)c1OC(C)=O (centres undefined) | > 0.2 | 0.0324 | 
7 | CC(C)(C)OC(=O)c1ccc(NCC2=C(Br)C(=O)C=CC2=O)cc1 | > 200 | 11.5 | 
8 | CC(C)(C)NC(=O)c1ccccc1[Se][Se]c1ccccc1C(=O)NC(C)(C)C | 10.2 | 13.2 | 
9 | O=C(CSSCC(=O)OCCS(=O)(=O)Nc1ccc(Br)cc1)OCCS(=O)(=O)Nc1ccc(Br)cc1 |  |  | inactive
10 | O=C1OC2C(O)C3CC1C2O3 (centres undefined) | > 1580 | > 1580 | 
11 | O=C1CN(c2cccc(Cl)c2)C(=O)CN1CCN1CC(=O)N(c2cccc(Cl)c2)CC1=O | > 200 | > 200 | 
12 | CC(=O)Oc1ccc(-c2cc3ccccc3oc2=O)cc1OC(C)=O | > 200 | 8.32 | 
13 | COC(=O)C(=O)/C=C(\O)c1ccc(Cl)cc1 | > 200 | > 200 | 
14 | CCN1Cc2c(/C=C/c3ccccc3)nc3ccc(OC)cc3c2N(c2cccc(Cl)c2)C1 | > 41.7 | 7.76 | 
15 | COc1cc(CSc2ccc(O)cc2)cc(OC)c1OC | > 200 | 33.1 | 
16 | CCCCOC(=O)C(NC(C(=O)OCCCC)c1cc(C(C)(C)C)c(O)c(C(C)(C)C)c1)c1cc(C(C)(C)C)c(O)c(C(C)(C)C)c1 (centres undefined) | > 200 | > 200 | 
17 | C/C(=N\NS(=O)(=O)c1ccc(C)cc1)C(CN1CCOCC1)C(c1ccccc1)c1c(O)c2ccccc2oc1=O (centres undefined) | > 42.7 | 19.1 | 
18 | COC1[C@H](NC(=O)OC(C)(C)C)C(=O)N1Cc1ccccc1 (some centres undefined) |  |  | inactive
19 | O=C(N[C@H]1CCC[C@H]1C(=O)Nc1ccc(C(F)(F)F)cc1)OCc1ccccc1 | > 200 | > 200 | 
20 | CC(=O)OCC1OC(N2C(c3ccccc3)=CC(c3ccccc3)C(C#N)=C2S)C(OC(C)=O)C(OC(C)=O)C1OC(C)=O (centres undefined) | > 200 | 77.6 | 
21 | C[n+]1c(-c2ccc(/C=N/Nc3ccnc(N/N=C/c4ccc(-c5cn6ccsc6[n+]5C)cc4)n3)cc2)cn2ccsc21 | 11.5 | 41.7 | 

Row | Structure (SMILES) | EC50 [µM] | IC50 [µM] | outcome
22 | O=S(=O)(O)c1cc(N/N=C/c2cc(S(=O)(=O)O)c3cccnc3c2O)ccc1/C=C/c1ccc(N/N=C/c2cc(S(=O)(=O)O)c3cccnc3c2O)cc1S(=O)(=O)O | 13.5 | 129 | 
23 | Nc1nc(=S)ss1 | > 200 | 155 | 
24 | C#CCOc1cc2c(c3oc(=O)cc(CCC)c13)[C@@H](O)[C@H](C)[C@@H](C)O2 | > 200 | > 200 | 
25 | CCC(C)C(NC(=O)C(N)CCCCN)C(=O)NC(CCC(=O)O)C(=O)NC(CO)C(=O)NC(C(=O)O)C(C)O (centres undefined) (H-KIEST-OH; configuration not given here) |  |  | inactive
26 | Cc1cn(C2C=CC(O)CC2)c(=O)[nH]c1=O (centres undefined) | > 589 | > 589 | 
27 | CCC(=N\N=C(N)N)/C(C)=N/N=C(N)N | > 23.4 | > 23.4 | 
28 | Cc1c(C(Cc2ccccc2N(C)C(=O)/C=C\C(=O)O)c2c[nH]c3ccccc23)c2ccccc2n1C (centres undefined) | > 363 | 22.4 | 
29 | C=Cc1ccccc1C1(O)C=CC(OC)(OC)C=C1 | > 200 | 7.94 | 
30 | Cc1cc2cc3c(C)cc(=O)oc3c(C)c2o1 | > 56.2 | > 56.2 | 
31 | CC1=NOC2(C1)C(=O)Nc1ccccc12 (centres undefined) | > 200 | 141 | 
32 | Cc1cc2c(cc1C)Nc1oc3ccc4ccccc4c3c(=O)c1C=N2 | > 200 | > 200 | 
33 | COc1ccc2cc1Oc1ccc(cc1)CC1c3cc(c(OC)cc3CCN1C)Oc1c(OC)c(OC)c(OC)c3c1[C@H](C2)N(C)CC3 (some centres undefined) |  |  | inactive
34 | O=C([N-]/N=C/c1ccccc1)c1ccccc1[O-].[OH3+].[Zn+2] | 162 | 166 | 
35 | C[C@H]1O[C@@H](C(C)(C)C)OC(=O)[C@@H]1C(OC(=O)c1ccccc1)c1cccc2ccccc12 (some centres undefined) | > 200 | 83.2 | 
36 | O=C(NCc1ccccc1)OCCO |  |  | inactive
37 | COc1ccc2cc1-c1cc(ccc1O)CC1NCCc3cc4c(cc31)Oc1c(c(OC)c(OC)c3c1[C@H](C2)N(C)CC3)O4 (some centres undefined) | > 6.03 | > 6.03 | 
38 | CCCNC(=O)N(C)S(=O)(=O)c1ccc(Cl)cc1 |  |  | inactive
39 | Nc1nc(Cl)nc(NCc2ccccc2)n1 | > 200 | > 200 | 
40 | Cc1ccc2c(c1)P1c3cc(C)ccc3SP1S2 (centres undefined) | > 12.3 | > 12.3 | 
41 | Cn1c(=O)nc2n(-c3cc(C(F)(F)F)cc(C(F)(F)F)c3)c3ccccc3nc-2c1=O |  |  | inactive
42 | Nc1cc2nc(=O)cc3n2c(n1)SC3 | > 67.6 | > 67.6 | 

Row | Structure (SMILES) | EC50 [µM] | IC50 [µM] | outcome
43 | CC1(C)SCCCCCCCSC(C)(C)SCCCCCCCS1 | > 63.1 | > 63.1 | 
44 | O=C(OCCN1CCCC12CCCCC2)C(c1ccccc1)C1CCCC1 (centres undefined) | > 200 | 7.76 | 
45 | COC(=O)[C@@]1(C)C(=O)CC[C@@H]1C=O | > 251 | 50.1 | 
46 | CCOC(=O)c1cc2c(ccc3cc(C(=O)OCC)[nH]c32)[nH]1 | > 200 | > 200 | 
47 | CCCCNC(=NCc1ccccc1)NC#N | > 407 | 295 | 
48 | CN(c1ccccc1)C(c1ccccc1)C(O)c1ccccc1 (centres undefined) |  |  | inactive
49 | CCCCOC(=O)c1ccc(NC(=O)C(C)N(CC)CC)cc1 (centres undefined) | > 200 | 36.3 | 
50 | O=C(c1ccccc1)c1cccc(C(=O)c2ccccc2)n1 | > 66.1 | > 66.1 | 
51 | N#Cc1ccccc1Sc1ccccc1N | > 158 | > 158 | 
52 | Cn1c(=O)nc2n(-c3ccc(Cl)cc3)c3ccc(Cl)cc3nc-2c1=O |  |  | inactive
53 | COC(=O)[C@]12CCC(=O)N1[C@H](C(=O)O)Cc1c2[nH]c2ccccc12 | > 200 | > 200 | 
54 | O=C(Nc1nc(Cl)nc(Cl)n1)N1CCOCC1 | > 200 | > 200 | 
55 | Nc1nc(N)nc(Nc2ccc([As](=O)(O)O)cc2)n1 | > 21.9 | > 21.9 | 
56 | COc1cc2c([C@@H](OC(=O)c3ccccc3)c3ccc4c(c3)OCO4)nccc2c(OC)c1OC |  |  | inactive
57 | CN1CC(Br)(Br)C(=O)N(C)C1=O | > 200 | 3.24 | 
58 | C=C1C(=O)OC2C[C@H](C)C3CC(=O)C(C)=C3CC12 (some centres undefined) | > 380 | 6.61 | 
59 | c1ccc(C[P+]2(c3ccccc3)c3ccccc3-c3ccccc32)cc1 | > 200 | > 200 | 
60 | O=C(O)C1(C(=O)O)CCC1.[NH2-].[NH2-].[Pt+2] | > 339 | 7.94 | 
61 | COC(=O)C(=O)C(C(=O)C(=O)Nc1nc(=S)[nH][nH]1)c1nc2ccc([N+](=O)[O-])cc2[nH]c1=O (centres undefined) | > 282 | > 282 | 
62 | O=C(CNc1ccc(Cl)cc1Cl)NC1C=Cc2ccc(S(=O)(=O)Nc3ccc(Cl)cc3Cl)cc2C1=O (centres undefined) | > 200 | > 200 | 
